The record followed here is patent publication US4123613A, “Substituted pyrazines as inhibitors of platelet aggregation” (Societa Farmaceutici Italia S.p.A., priority 1976, dated 1978).

This assay relates to platelet aggregation (rabbit platelets, ADP-induced). In words: ADP-induced platelet aggregation in vitro (turbidimetric method, rabbit platelet-rich plasma). The format is cell-based. The following applies: for Percent inhibition of platelets aggregation / inhibition at 25 µg/mL / inhibition at 50 µg/mL / inhibition at 100 µg/mL / inhibition at 200 µg/mL: tartrate salt; for inhibition at 25 µg/mL / inhibition at 50 µg/mL / inhibition at 100 µg/mL / inhibition at 200 µg/mL: Platelet, read-out: Percent inhibition of platelets aggregation. How it is done: In the biological tests hereafter described, the products were assayed as the tartrate salts.
Male rabbits weighing 2.5-3.5 Kg were used. Fifty four ml of blood were withdrawn from the carotid artery of rabbits anaesthetized with ether.
The PRP was obtained by centrifugation at 400 g for 10 minutes. The concentration of the platelets was adjusted to 250,000/mm^3 by diluting the PRP with PPP prepared by a second centrifugation of the blood samples for about 10 minutes at 2000 g.
The aggregation experiments were generally performed within 1-2 h from the time of blood collection.
In the cuvette of the aggregometer, reagents were added as follows: 0.8 ml drug solution or saline, and 0.2 ml ADP, at the molar concentration of 2.2 × 10^-4. The turbidimetry was checked after 11/2, 3 and 6 minutes. The inhibition of the aggregation is given in the table below as percent of ADP controls at the three times.

[1] abbreviates: 50 γ/ml, 90 seconds after ADP (2.2 × 10^-4).
[2] abbreviates: 50 γ/ml, 180 seconds after ADP (2.2 × 10^-4).
Setting [3] is: 50 γ/ml, 360 seconds after ADP (2.2 × 10^-4).
Where [4] appears, read: 100 γ/ml, 90 seconds after ADP (2.2 × 10^-4).
[5] abbreviates: 100 γ/ml, 180 seconds after ADP (2.2 × 10^-4).
Setting [6] is: 100 γ/ml, 360 seconds after ADP (2.2 × 10^-4).
Where [7] appears, read: 200 γ/ml, 90 seconds after ADP (2.2 × 10^-4).
The mark [8] stands for this setting: 200 γ/ml, 180 seconds after ADP (2.2 × 10^-4).
The mark [9] stands for this setting: 200 γ/ml, 360 seconds after ADP (2.2 × 10^-4).
Setting [10] is: 25 γ/ml, 90 seconds after ADP (2.2 × 10^-4).
[11] abbreviates: 25 γ/ml, 180 seconds after ADP (2.2 × 10^-4).
[12] abbreviates: 25 γ/ml, 360 seconds after ADP (2.2 × 10^-4).
The mark [13] stands for this setting: inhibition of platelet aggregation, at all three times.

Structures are written as SMILES. Converted amounts (≈) assume the structure as drawn. Like-named read-outs stand apart in the source and are kept apart here.

Regarding `COc1nccnc1NC[C@H]1CN(C)[C@@H]2Cc3cn(C)c4cccc(c34)[C@@]2(OC)C1` [355/899, 2-(10'-methoxy-1',6'-dimethylergoline-8'β-methyl)amino-3-methoxypyrazine], the “Percent inhibition of platelets aggregation” value (shortened to “Percent inhibition”) runs as follows: under setting [1], 10%; under setting [2], 9%; under setting [3], 10%; under setting [4], 30%; under setting [5], 30%; under setting [6], 30%. The “Percent inhibition” value runs as follows: under setting [7], 60%; under setting [8], 61%; under setting [9], 61%.

In the case of `CO[C@]12C[C@@H](CNc3cnccn3)CN(C)[C@@H]1Cc1cn(C)c3cccc2c13` [355/895, 2-(10'-methoxy-1',6'-dimethylergoline-8'β-methyl)aminopyrazine], the “Percent inhibition” value under setting [3] is 5%; the “Percent inhibition” value under setting [4] amounted to 10%; the “Percent inhibition” value under setting [5] worked out at 12%; the “Percent inhibition” value under setting [6] is recorded as 20%; the “Percent inhibition” value under setting [7] worked out at 50%; the “Percent inhibition” value under setting [8] came out at 55%. Under setting [9], the “Percent inhibition” value was found to be 62%. For the same molecule, the “activity (inhibition of platelet aggregation, in words)” value (at all three times) was “very low activity”.

As for `CO[C@]12C[C@@H](CNc3nccnc3Cl)CN(C)[C@@H]1Cc1cn(C)c3cccc2c13` [355/898, 2-(10'methoxy-1',6'-dimethylergoline-8'β-methyl)amino-3-chloropyrazine], the “Percent inhibition” value is reported as 17% under setting [10]; 20% under setting [11]; 30% under setting [12]; 35% under setting [1]; 31% under setting [2]; 45% under setting [3]. For the same molecule, the “Percent inhibition” value reads like this: under setting [4], 67%; under setting [5], 71%; under setting [6], 76%; under setting [7], 77%; under setting [8], 82%; under setting [9], 83%.

As for `CO[C@]12C[C@@H](CSc3cnccn3)CN(C)[C@@H]1Cc1cn(C)c3cccc2c13` [355/917, 2-(10'-methoxy-1',6'-dimethylergoline-8'β-methyl)thiopyrazine], the “Percent inhibition” value runs as follows: under setting [6], 10%; under setting [7], 15%; under setting [8], 12%; under setting [9], 35%. Besides, the “activity (inhibition of platelet aggregation, in words)” value (at all three times) was “very low activity”.

Consider `CO[C@]12C[C@@H](CSc3nccnc3Cl)CN(C)[C@@H]1Cc1cn(C)c3cccc2c13` [355/915, 2-(10'-methoxy-1',6'-dimethylergoline-8'β-methyl)thio-3-chloropyrazine], for which the “Percent inhibition” value under setting [10] is reported as 10%; the “Percent inhibition” value under setting [11] turned out to be 10%; the “Percent inhibition” value under setting [12] was 10%; the “Percent inhibition” value under setting [1] was 20%; the “Percent inhibition” value under setting [2] was 15%; the “Percent inhibition” value under setting [3] is recorded as 25%. Besides, the “Percent inhibition” value reads like this: under setting [4], 75%; under setting [5], 75%; under setting [6], 80%; under setting [7], 100%; under setting [8], 100%; under setting [9], 100%. Moreover, for the setting “at all three times”, the “activity (inhibition of platelet aggregation, in words)” value was “very strong activity”. Moreover, the ED50 under setting [13] is 55 to 70 µg/mL.

In the case of `CO[C@]12C[C@@H](CNc3cncc(Cl)n3)CN(C)[C@@H]1Cc1cn(C)c3cccc2c13` [355/900, 2-(10'-methoxy-1',6'-dimethylergoline-8'β-methyl)amino-6-chloropyrazine], the “Percent inhibition” value amounted to 10% under setting [10]; 10% under setting [11]; 10% under setting [12]; 40% under setting [1]; 25% under setting [2]; 30% under setting [3]. For the same molecule, the “Percent inhibition” value under setting [4] is reported as 80%; the “Percent inhibition” value under setting [5] is on record as 70%; the “Percent inhibition” value under setting [6] is 80%; the “Percent inhibition” value under setting [7] came to 100%; the “Percent inhibition” value under setting [8] was found to be 100%; the “Percent inhibition” value under setting [9] was 100%. Further, the “activity (inhibition of platelet aggregation, in words)” value (at all three times) was “very strong activity”. The ED50 under setting [13] is 55 to 70 µg/mL.

In the case of `COc1nccnc1SCC1CN(C)C2Cc3cn(C)c4cccc(c34)C2(OC)C1` (stereo not drawn) [355/918, 2-(10'-methoxy-1',6'-dimethylergoline-8'β-methyl)thio-3-methoxypyrazine], the inhibition at 25 µg/mL (Oryctolagus cuniculus, 25 γ/ml, 90 seconds after ADP (2.2 × 10^-4)) is 25%; the inhibition at 25 µg/mL (Oryctolagus cuniculus, 25 γ/ml, 180 seconds after ADP (2.2 × 10^-4)) was 20%; the inhibition at 25 µg/mL (Oryctolagus cuniculus, 25 γ/ml, 360 seconds after ADP (2.2 × 10^-4)) worked out at 26%. In addition, the inhibition at 50 µg/mL runs as follows: (Oryctolagus cuniculus, 50 γ/ml, 90 seconds after ADP (2.2 × 10^-4)) 45%; (Oryctolagus cuniculus, 50 γ/ml, 180 seconds after ADP (2.2 × 10^-4)) 31%; (Oryctolagus cuniculus, 50 γ/ml, 360 seconds after ADP (2.2 × 10^-4)) 42%. The inhibition at 100 µg/mL by setting is: (Oryctolagus cuniculus, 100 γ/ml, 90 seconds after ADP (2.2 × 10^-4)) 80%; (Oryctolagus cuniculus, 100 γ/ml, 180 seconds after ADP (2.2 × 10^-4)) 70%; (Oryctolagus cuniculus, 100 γ/ml, 360 seconds after ADP (2.2 × 10^-4)) 80%. For the same molecule, the inhibition at 200 µg/mL was 100% (Oryctolagus cuniculus, 200 γ/ml, 90 seconds after ADP (2.2 × 10^-4)); 100% (Oryctolagus cuniculus, 200 γ/ml, 180 seconds after ADP (2.2 × 10^-4)); 100% (Oryctolagus cuniculus, 200 γ/ml, 360 seconds after ADP (2.2 × 10^-4)). Further, the IC50 (Oryctolagus cuniculus, inhibition of platelet aggregation, at all three times, read-out: ED50 (the source's name)) was 55 to 70 µg/mL (≈ 130 to 165 µM). Besides, the “activity (inhibition of platelet aggregation, in words)” value (at all three times) was “very strong activity”.
